Key:
[1] = Solubility of the 1,2-propanediol solvate (stated advantage, no method given); format: physicochemical; details: advantageous property found by the inventors; no solvent or value given
[2] = cited from earlier work

Row | solubility [1] | Structure (SMILES) | solubility in alcoholic solvents ([2]; alcoholic solvents like ethanol and methanol) | solubility in water ([2]; water)
1 | good solubility | Cc1nc(Nc2ncc(C(=O)Nc3c(C)cccc3Cl)s2)cc(N2CCN(CCO)CC2)n1 [1,2-propanediol solvate, 1,2-Propanediol solvate of N-(2-chloro-6-methylphenyl)-2-[[6-[4-(2-hydroxyethyl)-1-piperazinyl]-2-methyl-4-pyrimidinyl]amino]-5-thiazolecarboxamide] |  | 
2 |  | Cc1nc(Nc2ncc(C(=O)Nc3c(C)cccc3Cl)s2)cc(N2CCN(CCO)CC2)n1 [Dasatinib, N-(2-chloro-6-methylphenyl)-2-[[6-[4-(2-hydroxyethyl)-1-piperazinyl]-2-methyl-4-pyrimidinyl]amino]-5-thiazole carboxamide] | slightly soluble | insoluble

From US10301302B2, “Crystalline forms of N-(2-chloro-6-methy]phenvn-2-[F6-[4-(2-hvdroxvethvl)-L-piperazin-vil-2-methvil-4-pvrimidinvllaminol-5-thiazolecarboxamide and their process thereof” (MSN LABORATORIES PRIVATE LIMITED, priority 2015, dated 2019)
